The values that follow come from US10988478B1, “Pyrazolo[1,5a]pyrimidine derivatives as IRAK4 modulators” (Genentech, Inc., priority 2015, dated 2021).

Chain of human IRAK4 (Q9NWZ3 whole entry, the tested form may be a part): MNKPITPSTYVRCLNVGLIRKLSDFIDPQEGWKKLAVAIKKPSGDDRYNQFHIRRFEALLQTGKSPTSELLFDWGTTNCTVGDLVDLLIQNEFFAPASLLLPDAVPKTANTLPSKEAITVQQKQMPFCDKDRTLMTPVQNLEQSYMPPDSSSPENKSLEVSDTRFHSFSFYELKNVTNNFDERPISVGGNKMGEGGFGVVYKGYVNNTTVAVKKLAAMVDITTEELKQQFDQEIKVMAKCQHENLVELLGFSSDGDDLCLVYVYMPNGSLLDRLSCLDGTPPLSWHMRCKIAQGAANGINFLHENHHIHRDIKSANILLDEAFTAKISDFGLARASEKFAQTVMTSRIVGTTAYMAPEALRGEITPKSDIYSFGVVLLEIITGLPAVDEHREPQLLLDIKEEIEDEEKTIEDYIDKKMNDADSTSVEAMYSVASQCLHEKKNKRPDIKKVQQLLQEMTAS

This assay concerns the target human IRAK4 (Homo sapiens (Human), UniProt Q9NWZ3). Put plainly: IRAK4 kinase inhibition, Transcreener fluorescence polarization ADP assay. It is filed as biochemical. Conditions: recombinant full-length His6-IRAK4; 125 uM ATP; 90 min; Ki computed using ATP Km 642 uM. Here is the method:
Compounds were assayed for inhibition of human IRAK4 and IRAK1 catalytic activity using recombinant enzyme produced from insect cells. Full-length IRAK4 protein, carrying an N-terminal His6-Tag, was obtained from Life Technologies (Carlsbad, Calif., USA). The IRAK1 construct was produced internally and was comprised of IRAK1 residues Arg194 to Ser712, preceded by an NH2-terminal His6 tag and the coding sequence for glutathione-S-transferase.
Background: In fluorescence polarisation assays a small probe gives low polarisation when free and higher when bound to something large.
`CC1(C)Cc2cc(NC(=O)c3cnn4cc(OC(F)F)cnc34)c(N3CCOCC3)cc2O1` [Example 493, 6-(difluoromethoxy)-N-(2,2-dimethyl-6-morpholino-2,3-dihydrobenzofuran-5-yl)pyrazolo[1,5-a]pyrimidine-3-carboxamide]: the Ki (commonly the equilibrium dissociation constant of an inhibitor or competing ligand from its target) worked out at 43 nM.
For `O=C(Nc1cc2c(cc1N1CCOCC1)C(=O)N(CC1CCCCO1)C2)c1cnn2cccnc12` (single isomer, unassigned) [Example 278, N-(6-morpholino-1-oxo-2-((tetrahydro-2H-pyran-2-yl)methyl)isoindolin-5-yl)pyrazolo[1,5-a]pyrimidine-3-carboxamide], the inhibition constant (Ki) turned out to be 4 nM.
The result for `CC1(O)COc2cc(N3CCC(C(C)(O)C(F)(F)F)CC3)c(NC(=O)c3cnn4cccnc34)cc2C1` (stereo not drawn) [Example 423, N-(3-hydroxy-3-methyl-7-(4-(1,1,1-trifluoro-2-hydroxypropan-2-yl)piperidin-1-yl)chroman-6-yl)pyrazolo[1,5-a]pyrimidine-3-carboxamide] reads 9.6 nM.
Under `Cn1cnc(-c2cc3c(cc2NC(=O)c2cnn4cccnc24)CC(C)(C)O3)c1` [Example 488, N-[2,2-Dimethyl-6-(1-methylimidazol-4-yl)-3H-benzofuran-5-yl]pyrazolo[1,5-a]pyrimidine-3-carboxamide] stands 610 nM.
The result for `CC1(C(F)F)Cc2cc(NC(=O)c3cnn4cccnc34)c(N3CCN(CC(F)F)CC3)cc2O1` (stereo not drawn) [Example 364, N-(6-(4-(2,2-Difluoroethyl)piperazin-1-yl)-2-(difluoromethyl)-2-methyl-2,3-dihydrobenzofuran-5-yl)pyrazolo[1,5-a]pyrimidine-3-carboxamide] reads 3.7 nM.
As to `C[C@@]1(CO)Cc2cc(NC(=O)c3cnn4cccnc34)c(N3C[C@@H]4C[C@H]3CO4)cc2O1` (single isomer, unassigned) [Example 46], the inhibition constant Ki came out at 540 nM.
Take `CC1(C)Cc2cc(NC(=O)c3cnn4cccnc34)c(N3CC4COCC(C3)C4O)cc2O1` (stereo not drawn) [Example 237, N-(6-(9-Hydroxy-3-oxa-7-azabicyclo[3.3.1]nonan-7-yl)-2,2-dimethyl-2,3-dihydrobenzofuran-5-yl)pyrazolo[1,5-a]pyrimidine-3-carboxamide]: the inhibition constant (Ki) amounted to 810 nM.
For `CNC(=O)[C@]1(C)Cc2cc(NC(=O)c3cnn4cccnc34)c(N3CCOCC3)cc2O1` [Example 48, (S)—N-(2-Methyl-2-(methylcarbamoyl)-6-morpholino-2,3-dihydrobenzofuran-5-yl)pyrazolo[1,5-a]pyrimidine-3-carboxamide], the Ki came out at 190 nM.
With `CSCCN1CCN(c2cc3c(cc2NC(=O)c2cnn4cccnc24)CC(C)(C)O3)CC1` [Example 454, N-(2,2-dimethyl-6-(4-(2-(methylthio)ethyl)piperazin-1-yl)-2,3-dihydrobenzofuran-5-yl)pyrazolo[1,5-a]pyrimidine-3-carboxamide], the inhibition constant Ki stood at 8.8 nM.
The result for `NC(=O)CN1CCN(c2cc3c(cc2NC(=O)c2cnn4cccnc24)CN(CC(F)(F)F)C3=O)CC1` [Example 265, N-[6-[4-(2-Amino-2-oxo-ethyl)piperazin-1-yl]-1-oxo-2-(2,2,2-trifluoroethyl)isoindolin-5-yl]pyrazolo[1,5-a]pyrimidine-3-carboxamide] reads 4 nM; that for `CC1CNc2cc(NC(=O)c3cnn4cccnc34)c(N3CCOCC3)cc2O1` (stereo not drawn) [Example 11, N-(2-Methyl-7-morpholino-3,4-dihydro-2H-benzo[b][1,4]oxazin-6-yl)pyrazolo[1,5-a]pyrimidine-3-carboxamide], 72 nM.
The result for `Cc1cnc2c(C(=O)Nc3cc4c(cc3N3CCC(CO)CC3)OCCN4)cnn2c1` [Example 7, N-(7-(4-(Hydroxymethyl)piperidin-1-yl)-3,4-dihydro-2H-benzo[b][1,4]oxazin-6-yl)-6-methylpyrazolo[1,5-a]pyrimidine-3-carboxamide] reads 3.9 nM; that for `O=C(Nc1cc2c(cc1N1CCOCC1)OC1(CCOCC1)C2)c1cnn2cccnc12` [Example 39, N-(6-Morpholino-2′,3′,5′,6′-tetrahydro-3H-spiro[benzofuran-2,4′-pyran]-5-yl)pyrazolo[1,5-a]pyrimidine-3-carboxamide], 11 nM.
Under `CN1CCc2cc(NC(=O)c3cnn4cccnc34)c(N3CCOCC3)cc2C1=O` [Example 401, N-(2-Methyl-7-morpholino-1-oxo-1,2,3,4-tetrahydroisoquinolin-6-yl)pyrazolo[1,5-a]pyrimidine-3-carboxamide] stands 97 nM; under `CN(C)C(=O)CN1CCN(c2cc3c(cc2NC(=O)c2cnn4cccnc24)CC(C)(C)O3)CC1` [Example 232, N-(6-(4-(2-(Dimethylamino)-2-oxoethyl)piperazin-1-yl)-2,2-dimethyl-2,3-dihydrobenzofuran-5-yl)pyrazolo[1,5-a]pyrimidine-3-carboxamide], 34 nM; under `Cc1nccc(C2CCN(c3cc4c(cc3NC(=O)c3cnn5cccnc35)CC(C)(C)O4)C2)n1` (stereo not drawn) [Example 229, N-(2,2-Dimethyl-6-(3-(2-methylpyrimidin-4-yl)pyrrolidin-1-yl)-2,3-dihydrobenzofuran-5-yl)pyrazolo[1,5-a]pyrimidine-3-carboxamide], 260 nM.
With `CC1(C)CN(c2cc3c(cc2NC(=O)c2cnn4cccnc24)C[C@@](C)(CO)O3)CCO1` [Example 37, (S)—N-(6-(2,2-dimethylmorpholino)-2-(hydroxymethyl)-2-methyl-2,3-dihydrobenzofuran-5-yl)pyrazolo[1,5-a]pyrimidine-3-carboxamide], the inhibition constant Ki came out at 370 nM.
The result for `CC1(C)Cc2cc(NC(=O)c3cnn4cccnc34)c(N3CC4CC3CC4(F)F)cc2O1` (stereo not drawn) [Example 193, N-[6-(5,5-difluoro-2-azabicyclo[2.2.1]heptan-2-yl)-2,2-dimethyl-3H-benzofuran-5-yl]pyrazolo[1,5-a]pyrimidine-3-carboxamide] reads 100 nM; that for `C[C@]1(O)COc2cc(N3CCN(CC(N)=O)CC3)c(NC(=O)c3cnn4cccnc34)cc2C1` [Example 424, (R)-N-(7-(4-(2-amino-2-oxoethyl)piperazin-1-yl)-3-hydroxy-3-methylchroman-6-yl)pyrazolo[1,5-a]pyrimidine-3-carboxamide], 3 nM.
The result for `CC1(C)Cc2cc(NC(=O)c3cnn4cccnc34)c(N3CC4(CCC4(F)F)C3)cc2O1` [Example 204, N-(6-(5,5-difluoro-2-azaspiro[3.3]heptan-2-yl)-2,2-dimethyl-2,3-dihydrobenzofuran-5-yl)pyrazolo[1,5-a]pyrimidine-3-carboxamide] reads 730 nM; that for `CNc1cnc2c(C(=O)Nc3cc4c(cc3N3CCN(CC(F)F)CC3)OC3(CCOCC3)C4)cnn2c1` [Example 383, N-(6-(4-(2,2-difluoroethyl)piperazin-1-yl)-2′,3′,5′,6′-tetrahydro-3H-spiro[benzofuran-2,4′-pyran]-5-yl)-6-(methylamino)pyrazolo[1,5-a]pyrimidine-3-carboxamide], 7.6 nM.
Under `C[C@@]1(CO)Cc2cc(NC(=O)c3cnn4cccnc34)c(N3CC[C@H](F)C3)cc2O1` [Example 56, N-[(2S)-6-[(3S)-3-Fluoropyrrolidin-1-yl]-2-(hydroxymethyl)-2-methyl-3H-benzofuran-5-yl]pyrazolo[1,5-a]pyrimidine-3-carboxamide] stands 21 nM; under `O=C(Nc1cc2c(cc1N1CCOCC1)C(=O)N(CC(F)(F)CO)C2)c1cnn2cccnc12` [Example 273, N-[2-(2,2-Difluoro-3-hydroxy-propyl)-6-morpholino-1-oxo-isoindolin-5-yl]pyrazolo[1,5-a]pyrimidine-3-carboxamide], 37 nM; under `C[C@]1(CO)Cc2cc(NC(=O)c3cnn4cccnc34)c(N3CC[C@H](F)C3)cc2O1` [Example 57, N-[(2R)-6-[(3S)-3-Fluoropyrrolidin-1-yl]-2-(hydroxymethyl)-2-methyl-3H-benzofuran-5-yl]pyrazolo[1,5-a]pyrimidine-3-carboxamide], 60 nM.
Consider `C[C@@H]1CN(c2cc3c(cc2NC(=O)c2cnn4cccnc24)CC(C)(C)O3)C[C@H](C)N1CC(N)=O` [Example 227, N-(6-((3R,5S)-4-(2-Amino-2-oxoethyl)-3,5-dimethylpiperazin-1-yl)-2,2-dimethyl-2,3-dihydrobenzofuran-5-yl)pyrazolo[1,5-a]pyrimidine-3-carboxamide], for which the inhibitory constant (Ki) was 490 nM.
Regarding `C[C@]1(CO)Cc2cc(NC(=O)c3cnn4cccnc34)c(N3CCC(C#N)CC3)cc2O1` [Example 335, (R)-N-(6-(4-cyanopiperidin-1-yl)-2-(hydroxymethyl)-2-methyl-2,3-dihydrobenzofuran-5-yl)pyrazolo[1,5-a]pyrimidine-3-carboxamide], the Ki turned out to be 2 nM.
The result for `O=C(Nc1cc2c(cc1N1CCOCC1)C(=O)N(C[C@H]1CCC[C@H]1O)C2)c1cnn2cccnc12` [Example 560, N-[2-[[(1R,2R)-2-hydroxycyclopentyl]methyl]-6-morpholino-1-oxo-isoindolin-5-yl]pyrazolo[1,5-a]pyrimidine-3-carboxamide] reads 1.6 nM; that for `C[C@@]1(CO)Cc2cc(NC(=O)c3cnn4cccnc34)c(N3Cc4cccnc4C3)cc2O1` [Example 420, (S)-N-(6-(5,7-dihydro-6H-pyrrolo[3,4-b]pyridin-6-yl)-2-(hydroxymethyl)-2-methyl-2,3-dihydrobenzofuran-5-yl)pyrazolo[1,5-a]pyrimidine-3-carboxamide], 14 nM; that for `CC1(C)Cc2cc(NC(=O)c3cnn4cccnc34)c(OCc3ccncc3)cc2O1` [Example 301, N-(2,2-Dimethyl-6-(pyridin-4-ylmethoxy)-2,3-dihydrobenzofuran-5-yl)pyrazolo[1,5-α]pyrimidine-3-carboxamide], 17 nM.
In the case of `C[C@]1(CC(F)F)Cc2cc(NC(=O)c3cnn4cccnc34)c(N3CCOCC3)cc2O1` [Example 367, N-[(2R)-2-(2,2-difluoroethyl)-2-methyl-6-morpholino-3H-benzofuran-5-yl]pyrazolo[1,5-a]pyrimidine-3-carboxamide], the Ki stood at 5.8 nM.
